The test deals with T1, PTP-1b (Homo sapiens, UniProt P18031).
T1 construct: purchased Bioneer, Korea
T1 sequence (P18031 1-435): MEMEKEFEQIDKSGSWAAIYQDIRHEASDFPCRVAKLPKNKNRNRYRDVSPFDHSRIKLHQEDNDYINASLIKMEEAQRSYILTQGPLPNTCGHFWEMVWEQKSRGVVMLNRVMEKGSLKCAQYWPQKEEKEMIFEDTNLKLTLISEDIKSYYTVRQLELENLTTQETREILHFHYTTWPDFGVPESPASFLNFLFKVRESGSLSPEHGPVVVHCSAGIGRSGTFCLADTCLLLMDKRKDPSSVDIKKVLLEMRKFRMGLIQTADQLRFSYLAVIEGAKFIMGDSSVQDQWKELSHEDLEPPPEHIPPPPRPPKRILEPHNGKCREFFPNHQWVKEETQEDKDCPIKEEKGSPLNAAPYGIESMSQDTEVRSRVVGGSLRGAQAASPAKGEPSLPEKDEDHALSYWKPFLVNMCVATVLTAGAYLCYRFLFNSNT
The test is described as follows: PTP-1b inhibitory activity of lobaric acid (control), pNPP assay. It is filed as biochemical. As to conditions: read-out: IC50 against PTP-1b. How it is done:
Meanwhile, the PTP-1b inhibitory activity of lobaric acid as a control was measured. PTP-1b used in the test was purchased from BIOMOL (USA). In order to spectroscopically measure the activity of the enzyme, about 0.2 μg/Ml of PTP-1b, PTP-1b buffer (50 mM citrate, pH 6.0, 0.1M NaCl, 1 mM EDTA, 1 mM DTT), lobaric acid, 4 mM pNPP were mixed, shaken lightly, and then reacted at 37° C. for 30 minutes, after which the absorbance at 405 nm was measured.

Take `CCCCCc1c2c(cc(O)c1C(=O)O)OC(=O)c1c(cc(OC)cc1C(=O)CCCC)O2` [lobaric acid]: the IC50 (commonly the midpoint of a concentration-inhibition curve) came out at 870 nM.

The record behind these values is patent publication US8846750B2, “Pharmaceutical and food compositions for preventing or treating diabetes or obesity” (Korea Ocean Research and Development Institute, priority 2010, dated 2014).
